Results from the supplement of paper PMC10307832.

What was measured:
Assay in all cases: relative viability (nuclei count vs DMSO), 5 days (fraction); higher = more cells survive
A549 = tested on: A549
Method in brief: (§1)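 After 5 days of treatment, lung cancer cells in 1536-well plates were fixed and stained in a single step (final 0.05% Triton X-100, 1% formaldehyde, 1 ug/ml Hoechst) and their nuclei counted on 4× images. Treatment had been applied by pin tool the day after seeding as one drug alone or as a fixed anchor-drug dose with five library-drug doses (not always all listed) in √10 steps. Relative viability is the nuclei count of treated wells divided by that of vehicle wells, and values are medians of duplicate plates.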

NCI-H1648 = tested on: NCI-H1648
Method in brief: as §1

NCI-H2009 = tested on: NCI-H2009
Method in brief: as §1

NCI-H460 = tested on: NCI-H460
Method in brief: as §1

NCI-H522 = tested on: NCI-H522
Method in brief: as §1

NCI-H661 = tested on: NCI-H661
Method in brief: as §1

With `NC(=O)Nc1cc(-c2cccc(F)c2)sc1C(=O)N[C@H]1CCCNC1` [AZD7762] + Nc1ncn([C@H]2C[C@H](O)[C@@H](CO)O2)c(=O)n1 [Decitabine] (partner 2 µM) the relative viability (A549; first compound 0.01 µM) was 0.305, the relative viability (A549; first compound 0.03162 µM) was 0.252 and the relative viability (A549; first compound 0.1 µM) was 0.27. For the same molecule, the relative viability (A549; first compound 0.3162 µM) was 0.281, the relative viability (A549; first compound 1 µM) was 0.202 and the relative viability (NCI-H1648; first compound 0.01 µM) was 0.512. For the same molecule, the relative viability (NCI-H1648; first compound 0.03162 µM) was 0.671, the relative viability (NCI-H1648; first compound 0.1 µM) was 0.415 and the relative viability (NCI-H1648; first compound 0.3162 µM) was 0.462. The relative viability (NCI-H1648; first compound 1 µM) was 0.437, the relative viability (NCI-H2009; first compound 0.01 µM) was 0.468 and the relative viability (NCI-H2009; first compound 0.03162 µM) was 0.417. The relative viability (NCI-H2009; first compound 0.1 µM) was 0.373, the relative viability (NCI-H2009; first compound 0.3162 µM) was 0.378 and the relative viability (NCI-H2009; first compound 1 µM) was 0.3. It also gave a relative viability (NCI-H460; first compound 0.01 µM) of 0.657, a relative viability (NCI-H460; first compound 0.03162 µM) of 0.488 and a relative viability (NCI-H460; first compound 0.1 µM) of 0.451. For the same molecule, the relative viability (NCI-H460; first compound 0.3162 µM) was 0.26, the relative viability (NCI-H460; first compound 1 µM) was 0.0798 and the relative viability (NCI-H522; first compound 0.01 µM) was 0.668. For the same molecule, the relative viability (NCI-H522; first compound 0.03162 µM) was 0.709, the relative viability (NCI-H522; first compound 0.1 µM) was 0.714 and the relative viability (NCI-H522; first compound 0.3162 µM) was 0.689. For the same molecule, the relative viability (NCI-H522; first compound 1 µM) was 0.686, the relative viability (NCI-H661; first compound 0.01 µM) was 0.689 and the relative viability (NCI-H661; first compound 0.03162 µM) was 0.62. It also gave a relative viability (NCI-H661; first compound 0.1 µM) of 0.642, a relative viability (NCI-H661; first compound 0.3162 µM) of 0.609 and a relative viability (NCI-H661; first compound 1 µM) of 0.356.

Molecule `O=C(O)c1ccc(-c2c[nH]c3ncc(-c4ccccc4)cc23)cc1C1CCCC1` + CC(=O)c1c(C)c2cnc(Nc3ccc(N4CCNCC4)cn3)nc2n(C2CCCC2)c1=O [Palbociclib] (partner 0.5 µM) has a relative viability (NCI-H1648; first compound 0.04 µM) of 0.285, a relative viability (NCI-H1648; first compound 0.1265 µM) of 0.294 and a relative viability (NCI-H1648; first compound 0.4 µM) of 0.27. The relative viability (NCI-H2009; first compound 0.04 µM) was 0.152, the relative viability (NCI-H2009; first compound 0.1265 µM) was 0.246 and the relative viability (NCI-H2009; first compound 0.4 µM) was 0.175. It also gave a relative viability (NCI-H2009; first compound 1.265 µM) of 0.209, a relative viability (NCI-H460; first compound 0.04 µM) of 0.274 and a relative viability (NCI-H460; first compound 0.1265 µM) of 0.203. For the same molecule, the relative viability (NCI-H460; first compound 0.4 µM) was 0.23, the relative viability (NCI-H460; first compound 1.265 µM) was 0.146 and the relative viability (NCI-H522; first compound 0.04 µM) was 0.977. The relative viability (NCI-H522; first compound 0.1265 µM) was 1.02, the relative viability (NCI-H522; first compound 0.4 µM) was 1.06 and the relative viability (NCI-H522; first compound 1.265 µM) was 1.1. It also gave a relative viability (NCI-H661; first compound 0.04 µM) of 0.414, a relative viability (NCI-H661; first compound 0.1265 µM) of 0.411 and a relative viability (NCI-H661; first compound 0.4 µM) of 0.406. The relative viability (NCI-H661; first compound 1.265 µM) was 0.389.

`O=C(O)c1ccc(-c2c[nH]c3ncc(-c4ccccc4)cc23)cc1C1CCCC1` + CC(=O)Nc1cccc(-n2c(=O)n(C3CC3)c(=O)c3c(Nc4ccc(I)cc4F)n(C)c(=O)c(C)c32)c1 [Trametinib] (partner 0.02 µM) gave a relative viability (NCI-H1648; first compound 0.04 µM) of 0.589, a relative viability (NCI-H1648; first compound 0.1265 µM) of 0.448 and a relative viability (NCI-H1648; first compound 0.4 µM) of 0.494. The relative viability (NCI-H2009; first compound 0.04 µM) was 0.261, the relative viability (NCI-H2009; first compound 0.1265 µM) was 0.311 and the relative viability (NCI-H2009; first compound 0.4 µM) was 0.274. For the same molecule, the relative viability (NCI-H2009; first compound 1.265 µM) was 0.224, the relative viability (NCI-H460; first compound 0.04 µM) was 0.13 and the relative viability (NCI-H460; first compound 0.1265 µM) was 0.189. The relative viability (NCI-H460; first compound 0.4 µM) was 0.238, the relative viability (NCI-H460; first compound 1.265 µM) was 0.23 and the relative viability (NCI-H522; first compound 0.04 µM) was 0.696. It also gave a relative viability (NCI-H522; first compound 0.1265 µM) of 0.761, a relative viability (NCI-H522; first compound 0.4 µM) of 0.763 and a relative viability (NCI-H522; first compound 1.265 µM) of 0.768. The relative viability (NCI-H661; first compound 0.04 µM) was 0.585, the relative viability (NCI-H661; first compound 0.1265 µM) was 0.628 and the relative viability (NCI-H661; first compound 0.4 µM) was 0.585. It also gave a relative viability (NCI-H661; first compound 1.265 µM) of 0.59.

`CC1(C)CCC(c2ccc(Cl)cc2)=C(CN2CCN(c3ccc(C(=O)NS(=O)(=O)c4ccc(N[C@H](CCN5CCOCC5)CSc5ccccc5)c(S(=O)(=O)C(F)(F)F)c4)cc3)CC2)C1` [Navitoclax] + Nc1ncn([C@H]2C[C@H](O)[C@@H](CO)O2)c(=O)n1 [Decitabine] (partner 2 µM) gave a relative viability (A549; first compound 0.005 µM) of 0.252, a relative viability (A549; first compound 0.01581 µM) of 0.249 and a relative viability (A549; first compound 0.05 µM) of 0.204. For the same molecule, the relative viability (A549; first compound 0.1581 µM) was 0.271, the relative viability (A549; first compound 0.5 µM) was 0.246 and the relative viability (NCI-H1648; first compound 0.005 µM) was 0.528. The relative viability (NCI-H1648; first compound 0.01581 µM) was 0.511, the relative viability (NCI-H1648; first compound 0.1581 µM) was 0.518 and the relative viability (NCI-H1648; first compound 0.5 µM) was 0.44. For the same molecule, the relative viability (NCI-H2009; first compound 0.005 µM) was 0.412, the relative viability (NCI-H2009; first compound 0.01581 µM) was 0.441 and the relative viability (NCI-H2009; first compound 0.05 µM) was 0.382. The relative viability (NCI-H2009; first compound 0.1581 µM) was 0.342, the relative viability (NCI-H2009; first compound 0.5 µM) was 0.295 and the relative viability (NCI-H460; first compound 0.005 µM) was 0.481. For the same molecule, the relative viability (NCI-H460; first compound 0.01581 µM) was 0.523, the relative viability (NCI-H460; first compound 0.05 µM) was 0.234 and the relative viability (NCI-H460; first compound 0.1581 µM) was 0.411. For the same molecule, the relative viability (NCI-H460; first compound 0.5 µM) was 0.444, the relative viability (NCI-H522; first compound 0.005 µM) was 0.685 and the relative viability (NCI-H522; first compound 0.01581 µM) was 0.696. The relative viability (NCI-H522; first compound 0.05 µM) was 0.699, the relative viability (NCI-H522; first compound 0.1581 µM) was 0.547 and the relative viability (NCI-H522; first compound 0.5 µM) was 0.712. The relative viability (NCI-H661; first compound 0.005 µM) was 0.556, the relative viability (NCI-H661; first compound 0.01581 µM) was 0.595 and the relative viability (NCI-H661; first compound 0.05 µM) was 0.545. For the same molecule, the relative viability (NCI-H661; first compound 0.1581 µM) was 0.547 and the relative viability (NCI-H661; first compound 0.5 µM) was 0.567.
